“Also recorded” adds a separate entry of the source. Read-outs that look alike come from different tables or passages of the source. Where a SMILES comes first, the peptide text is derived from it. Bridges are numbered along the chain shown (N, C = ends).
Assays:
[1] = cited from earlier work
[2] = system: loperamide-induced mouse model of constipation; assay: Loperamide-induced mouse model of constipation
tear secretion = assay: Tear secretion (phenol red thread); format: in vivo, mouse; settings: for increase of tear fluid secretion: single topical dose, for (at least) four hours
[3] = juvenile rats; cited from earlier work
human wild-type CFTR = target: T1, human wild-type CFTR (Homo sapiens, UniProt P13569); assay: Short-circuit current in FRT cells expressing wild-type human CFTR; format: cell-based; settings: for CFTR activation (in words): short-circuit current
T1 construct: expressed in transfected cells
T1 sequence (P13569 whole entry): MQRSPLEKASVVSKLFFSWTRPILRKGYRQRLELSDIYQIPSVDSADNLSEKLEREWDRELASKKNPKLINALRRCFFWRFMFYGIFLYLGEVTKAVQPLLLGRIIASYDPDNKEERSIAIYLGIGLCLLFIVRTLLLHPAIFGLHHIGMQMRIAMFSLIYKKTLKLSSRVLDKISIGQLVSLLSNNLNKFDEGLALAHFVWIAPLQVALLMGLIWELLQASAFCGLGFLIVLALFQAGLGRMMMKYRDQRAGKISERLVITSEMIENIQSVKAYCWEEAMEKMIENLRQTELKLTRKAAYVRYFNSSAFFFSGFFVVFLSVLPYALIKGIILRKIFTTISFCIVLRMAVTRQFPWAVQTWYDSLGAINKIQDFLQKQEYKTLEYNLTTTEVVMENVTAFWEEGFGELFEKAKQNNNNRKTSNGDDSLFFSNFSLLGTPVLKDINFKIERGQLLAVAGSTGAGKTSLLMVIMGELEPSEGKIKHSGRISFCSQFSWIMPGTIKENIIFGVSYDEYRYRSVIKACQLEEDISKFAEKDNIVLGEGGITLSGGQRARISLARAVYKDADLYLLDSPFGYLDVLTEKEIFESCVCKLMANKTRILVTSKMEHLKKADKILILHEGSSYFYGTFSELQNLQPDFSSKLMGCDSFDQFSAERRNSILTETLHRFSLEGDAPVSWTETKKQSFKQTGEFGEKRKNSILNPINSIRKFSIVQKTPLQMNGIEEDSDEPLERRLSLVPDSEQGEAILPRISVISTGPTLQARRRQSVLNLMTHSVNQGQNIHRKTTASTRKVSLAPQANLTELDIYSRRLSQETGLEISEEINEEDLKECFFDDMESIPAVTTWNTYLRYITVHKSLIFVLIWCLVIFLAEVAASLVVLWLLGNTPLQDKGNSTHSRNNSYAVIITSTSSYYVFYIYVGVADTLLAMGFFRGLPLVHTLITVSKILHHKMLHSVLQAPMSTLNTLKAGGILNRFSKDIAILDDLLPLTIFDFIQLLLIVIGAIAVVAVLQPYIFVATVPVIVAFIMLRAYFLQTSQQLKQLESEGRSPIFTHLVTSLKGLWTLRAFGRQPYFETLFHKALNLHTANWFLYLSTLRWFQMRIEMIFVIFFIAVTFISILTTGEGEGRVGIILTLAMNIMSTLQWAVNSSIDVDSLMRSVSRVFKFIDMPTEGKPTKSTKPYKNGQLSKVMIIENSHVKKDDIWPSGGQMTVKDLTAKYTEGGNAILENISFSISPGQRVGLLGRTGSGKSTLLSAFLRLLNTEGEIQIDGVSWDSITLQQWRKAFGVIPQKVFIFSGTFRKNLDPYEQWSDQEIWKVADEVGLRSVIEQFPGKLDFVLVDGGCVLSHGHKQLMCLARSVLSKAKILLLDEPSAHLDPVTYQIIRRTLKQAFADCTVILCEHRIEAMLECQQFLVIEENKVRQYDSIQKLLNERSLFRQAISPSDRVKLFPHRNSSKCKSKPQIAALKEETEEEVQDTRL
Protocol: Short-circuit current measurement. Short-circuit current was measured in FRT cells stably expressing wild-type human CFTR cultured on porous filters as described. The basolateral solution contained 130 mM NaCl, 2.7 mM KCl, 1.5 mM KH2PO4, 1 mM CaCl2, 0.5 mM MgCl2, 10 mM glucose, and 10 mM Na-HEPES (pH 7.3, 37° C.). In the apical solution 65 mM NaCl was replaced by Na gluconate, and CaCl2 was increased to 2 mM, and the basolateral membrane was permeabilized with 250 μg/ml amphotericin B. Short-circuit current was measured in freshly harvested adult mouse colon at 37° C. using symmetrical Krebs-bicarbonate buffer.
Short-circuit current. Fischer rat thyroid (FRT) cells stably expressing wild-type human CFTR were cultured on Snapwell inserts (Corning Costar, Corning N.Y., USA) for short-circuit current (Isc) measurements. After 6-9 days in culture, when the transepithelial resistance was >1000 Ω/cm^2, the inserts were mounted in an Ussing chamber system (World Precision Instruments, Sarasota, Fla., USA). The basolateral solution contained 130 mM NaCl, 2.7 mM KCl, 1.5 mM KH2PO4, 1 mM CaCl2, 0.5 mM MgCl2, 10 mM glucose, and 10 mM Na-HEPES (pH 7.3). In the apical bathing solution, 65 mM NaCl was replaced by Na gluconate, and CaCl2 was increased to 2 mM. Both solutions were bubbled with air and maintained at 37° C. The basolateral membrane was permeabilized with 250 μg/ml amphotericin B (26, 27). Hemichambers were connected to a DVC-1000 voltage clamp via Ag/AgCl electrodes and 3 M KCl agar bridges for Isc recording.

ocular surface = assay: Ocular surface potential difference measurements; format: in vivo, mouse; settings: wild-type mice, 1-10 μM
Protocol: Ocular surface potential difference measurements. Open-circuit transepithelial PD were measured continuously in anesthetized mice in response to serial perfusions of different solutions over the ocular surface, as described (21). Mice were anesthetized with Avertin (2,2,2-tribromoethanol, 125 mg/kg intraperitoneal, Sigma-Aldrich, St. Louis, Mo., USA), and core temperature was maintained at 37° C. using a heating pad. Eyes were oriented with the cornea and conjunctiva facing upward and exposed by retracting the eyelid with cross-action forceps. Solutions were isosmolar (320±10 mOsM; compositions provided in ref. 21) and contained 10μ[…] □ indomethacin to prevent CFTR activation by prostaglandins. The ocular surface was perfused at 6 mL/min through plastic tubing using a multireservoir gravity pinch-valve system (ALA Scientific, Westbury, N.Y., USA) and variable-flow peristaltic pump (medium flow model; Fisher Scientific, Fair Lawn, N.J., USA). A probe catheter was fixed 1 mm above the cornea using a micropositioner and a suction cannula was positioned 3 mm from the orbit. The measuring electrode was in contact to the perfusion catheter and connected to a high-impedance voltmeter (IsoMilivolt Meter; WPI). The reference electrode was grounded via a winged 21-gauge needle filled with isosmolar saline, and inserted subcutaneously in the abdomen. Measuring and reference electrodes consisted of Ag/AgCl with 3 M KCl agar bridges.
Ocular surface potential difference measurements. Open-circuit transepithelial PD were measured continuously in anesthetized mice in response to serial perfusions of different solutions over the ocular surface, as described (21). Mice were anesthetized with Avertin (2,2,2-tribromoethanol, 125 mg/kg intraperitoneal, Sigma-Aldrich, St. Louis, Mo., USA), and core temperature was maintained at 37° C. using a heating pad. Eyes were oriented with the cornea and conjunctiva facing upward and exposed by retracting the eyelid with cross-action forceps. […]

[4] = Tear film pharmacokinetics by LC/MS; settings: from quantity recovered vs EC50
[5] = mouse, in vivo
[6] = Ocular toxicity after chronic topical dosing (slit-lamp, lissamine green); format: in vivo; settings: chronically treated mice
Protocol: (§1) Lissamine green staining. To assess corneal epithelial disruption, 5 μL of lissamine green (LG) dye (1%) was applied to the ocular surface of isofluorane-anesthetized mice. Photographs of the eye were taken using a Nikon Digital camera adapted to an Olympus Zoom Stereo Microscope (Olympus, Center Valley, Pa., USA). Each corneal quadrant was scored on a 3-point scale by one blinded, trained observer, with the extent of staining in each quadrant classified as: 0, no staining; 1, sporadic (involving <25% of the total surface) staining; grade 2, diffuse punctate staining (25-75%); and grade 3, coalesced punctate staining (>75%). The total grade is reported as the sum of scores from all four quadrants, ranging from 0 to 12.

[7] = mouse, in vivo, topical or ocular
[8] = system: mouse model of aqueous-deficient dry eye produced by lacrimal gland excision; assay: Lacrimal gland excision (LGE) mouse model of dry eye; format: in vivo; settings: 0.1 nmol topically three times daily
Protocol: Tear secretion. To measure unstimulated tear production, phenol red threads (Zone-Quick, Oasis Medical, Glendora, Calif., USA) were placed for 10 s in the lateral canthi of isofluorane-anesthetized mice using jewelers' forceps. Tear volume was measured as the length of thread wetting, as visualized under a dissecting microscope. Serial measurements were used to evaluate compound pharmacodynamics after application of 2-μL drops of compound formulations (50-100 μM compound in PBS containing 0.5% polysorbate and 0.5% DMSO) comparing to vehicle.
as §1
Mouse model of dry eye produced by lacrimal gland excision. […]

## C[C@@H]1NC(=O)[C@@H]2CCCN2C(=O)[C@H](CC(N)=O)NC(=O)[C@@H]2CSSC[C@H](N)C(=O)N[C@H]3CSSC[C@H](NC1=O)C(=O)N[C@@H]([C@@H](C)O)C(=O)NCC(=O)N[C@H](C(=O)N[C@@H](Cc1ccc(O)cc1)C(=O)O)CSSC[C@H](NC(=O)[C@H](Cc1ccc(O)cc1)NC(=O)[C@H](CCC(=O)O)NC3=O)C(=O)N2 [linaclotide, reference compound] (H-CCEYCCNPACTGCY-OH; disulfide 1-6, 2-10, 5-13)
[1]; chronic constipation patients
  patients in whom effective: ~20%
[2]; oral 0.5 mg/kg, loperamide-treated mice
  stool output, % of the maximal CFTRact-J027 response: 35%

## CCCCC(F)(F)[C@@]1(O)CC[C@H]2[C@@H](CC(=O)[C@@H]2CCCCCCC(=O)O)O1 [lubiprostone]
[1]; IBS-C patients
  patients in whom effective: ~13%

## cholera toxin [reference compound]
Tear secretion; mouse, in vivo
  persistence of tear secretion effect: transient and undetectable after 2 hours

## CC(C)(C)c1cc(C(C)(C)C)c(NC(=O)c2c[nH]c3ccccc3c2=O)cc1O [VX-770, reference compound]
[3]
  adverse finding on chronic application: cataracts
Human wild-type CFTR; wild-type CFTR
  CFTR activation (in words): relatively little activity; also recorded: relatively weak activity
Human wild-type CFTR; wild-type CFTR, read-out: maximal activation of CFTR
  Emax: 15%
Ocular surface
  change in ocular surface PD (in words): minimal changes
Tear secretion
  increase of tear fluid secretion: little tear secretion

## CCN(CC)c1nc(Nc2ccccc2)nc(OC(C(F)(F)F)C(F)(F)F)n1 [CFTRact-K089]
[4]
  duration of therapeutic levels in tear fluid: predicts therapeutic levels for at least six hours
[5]
  systemic absorption (in words): without detectable systemic absorption
[6]
  LG staining, corneal or conjunctival epithelial disruption: no corneal or conjunctival epithelial disruption
  ocular toxicity by slit-lamp evaluation: no signs of ocular toxicity
Human wild-type CFTR; Isc
  CFTR activation: ~50 % Vmax
Human wild-type CFTR; wild-type CFTR
  CFTR activation (in words): fully activated CFTR
[7]
  tear film bioavailability (in words): sustained tear film bioavailability
[8]
  corneal / ocular surface epithelial disruption after LGE: prevents corneal epithelial disruption; also recorded: fully prevented; also recorded: prevented ocular surface epithelial disruption
  tear secretion / tear volume after LGE: restored tear secretion
Ocular surface
  change in ocular surface PD (in words): large hyperpolarizations
Tear secretion; CF mice
  tear fluid secretion in CF mice: no effect
Tear secretion
  increase of tear fluid secretion: doubled; also recorded: approximately two-fold

## Cn1c(=O)c(-c2cc([N+](=O)[O-])ccc2N)nc2ccccc21 [inactive chemical analog of CFTRact-J027, reference compound]
[2]; loperamide model, wildtype mice
  efficacy of inactive analog in wildtype mice: nor was an inactive chemical analog of CFTRact-J027 effective

## CC(C)Cn1c(=O)n(C)c(=O)c2[nH]cnc21 [IBMX, 3-isobutyl-1-methylxanthine, reference compound]
Tear secretion; after 2 hours
  persistence of tear secretion effect: transient and undetectable after 2 hours

Reference: patent publication US11192869B2, “CFTR regulators and methods of use thereof” (THE REGENTS OF THE UNIVERSITY OF CALIFORNIA, priority 2015, dated 2021)
